Measured values reported in PMC9023544, “Ketone-selenoesters as potential anticancer and multidrug resistance modulation agents in 2D and 3D ovarian and breast cancer in vitro models” (Scientific Reports, 2022).

How the values were obtained:
[1] = test system: HOC (human parental ovarian adenocarcinoma, A2780); test: Cytotoxic activity, 2D, resazurin, 72 h; assay type: cell-based; settings: for IC50: Homo sapiens, A2780, 72 h, read-out: HOC IC50; for SI HEK293/HOC: IC50 HEK293 / IC50 HOC
Procedure: (§1) The cytotoxic potential of selenoesters was tested on several cancer cell lines—HOC (human parental ovarian adenocarcinoma, HOC, A2780, Sigma-Aldrich), HOC/ADR (sub-line resistant to Adriamycin, A2780/ADR, Sigma-Aldrich), MCF-7 (human breast adenocarcinoma, ATCC®, HTB-22TM), MCF-7/PAX (resistant sub-line established by gradual adaptation of parental cells to increased concentration of paclitaxel; kindly provided by Division of Cell and Molecular Biology, Third Faculty of Medicine, Charles University, Czech Republic) and on one non-cancerous cell line—HEK293 (human embryonic kidney cell line, Leibniz Institute, DSMZ-German Collection of Microorganisms and Cell Cultures GmbH). All mentioned cell lines were authenticated using short tandem repeat (STR) profiling. Cell lines were cultivated in DMEM medium (10% FBS, 1× antibiotic antimycotic solution), except for HEK293 cell line which was cultivated without antibiotics. In case of the resistant cell lines, the medium was supplemented with a required concentration of cytostatics to maintain resistance (HOC/ADR—100 nM Adriamycin; MCF-7/PAX—300 nM paclitaxel). All cells were cultivated in a CO2 incubator (5% CO2, 37 °C, Thermo Fisher Scientific).
(§2) For the experiment, the cells at passage number 5–20 were seeded at a 1 × 10^5 cells/mL concentration into 96-well plates to 100 µL final volume. The final concentration range of the compounds was 0.63–20 µM. After an incubation of 72 h, the plates were washed 1× with PBS and resazurin solution (0.03 mg/mL in 1× PBS) was added. After 1 h of incubation, the fluorescence signal was recorded (ex./em. 560/590 nm).
(§3) The selectivity index (SI) was determined as the ratio of IC50 value for the non-cancerous cells to IC50 for the cancer cell line. For resistant cell lines, the collateral sensitivity (CS) was calculated as the ratio of IC50 value in sensitive tumour cells to IC50 in the resistant cancer cell line. In both cases, the selectivity is considered as: (1) strongly selective when SI or CS value is above 6, (2) moderately selective when SI or CS is between 3 and 6, (3) slightly selective when SI or CS is between 1 and 3 and (4) non-selective when SI or CS is less than 1[23].

[2] = test system: MCF-7 (human breast adenocarcinoma); test: Cytotoxic activity, 2D, resazurin, 72 h; assay type: cell-based; settings: for IC50: Homo sapiens, MCF7, 72 h, read-out: MCF-7 IC50; for SI HEK293/MCF-7: IC50 HEK293 / IC50 MCF-7
Procedure: as §1, §2, §3

[3] = test system: HOC/ADR (sub-line resistant to Adriamycin, A2780/ADR); test: Cytotoxic activity, 2D, resazurin, 72 h; assay type: cell-based, human; settings: for IC50 / IC10: Homo sapiens, A2780 ADR, 72 h; for IC50: read-out: HOC/ADR IC50; for IC10: read-out: IC10 of compounds; for SI HEK293/HOC/ADR: IC50 HEK293 / IC50 HOC/ADR; for CS (collateral sensitivity index): IC50 HOC / IC50 HOC/ADR
Procedure: as §1, §2, §3

[4] = test system: MCF-7/PAX (paclitaxel-resistant sub-line); test: Cytotoxic activity, 2D, resazurin, 72 h; assay type: cell-based, human; settings: for IC50: Homo sapiens, MCF7, 72 h, read-out: MCF-7/PAX IC50; for SI HEK293/MC7-7/PAX: IC50 HEK293 / IC50 MCF-7/PAX; for CS (collateral sensitivity index): IC50 MCF-7 / IC50 MCF-7/PAX; for IC10 of compounds: MCF-7/PAX
Procedure: as §1, §2, §3

HOC spheroids = test: Cytotoxic activity against 3D models, CellTiter-Glo 3D; assay type: cell-based; settings: Homo sapiens; 72 h old spheroids, 72 h incubation, n=4
Procedure: (§4) The ability of selenoesters to affect the formation of spheroids was described in the previous section. Subsequently, we have tested the cytotoxic potential of selenoesters in preformed 72 h old spheroids. Both sensitive and resistant mature breast and ovarian cells spheroids were incubated in the presence of selenoesters in a concentration range 1.6–100 µM. […] A safe concentration of selenoesters has been established based on the results of sensitization of drug-resistant 3D models.
(§5) Human ovarian and breast cancer cells (HOC, MCF-7, parental and resistant) were seeded in ultra-low attachment 96-well plates (Sigma-Aldrich) at a cell density of 0.5 × 10^5 cells/mL. After 3 days of spheroid formation, plates were carefully washed once with PBS and fresh DMEM medium (99 µL) was added. Using a binary compound dilution, the concentration range of the K3, K4, K7 compounds was prepared in new 96-well plates (0.16–10 mM). After 1 µL compound transfer, the final concentration range of compounds was 1.6–100 µM. The required volume of DMSO (1% V/V) was added to the positive control. After 72 h of incubation, 100 µL of CellTiter-Glo 3D Re-agent (Promega) was added to each well. Spheroid plates were incubated for 25 min at room temperature. Subsequently, the luminescent signal was recorded by detector (SpectraMax i3x Multi-Mode Microplate reader with MiniMax Imaging Cytometer, Molecular Devices).

HOC/ADR spheroids [5] = test: as above; assay type: cell-based; settings: Homo sapiens; 72 h old spheroids, 72 h incubation, n=4
Procedure: as §4, §5

MCF-7 spheroids = test: as above; assay type: cell-based; settings: Homo sapiens, MCF7; 72 h old spheroids, 72 h incubation, n=4
Procedure: as §4, §5

MCF-7/PAX spheroids = test: as above; assay type: cell-based; settings: Homo sapiens, MCF7; 72 h old spheroids, 72 h incubation, n=4
Procedure: as §4, §5

HOC/ADR spheroids [6] = test: Sensitization of resistant 3D spheroids to Adriamycin; assay type: cell-based, human; settings: Adriamycin IC50 / Adriamycin + selenoester IC50; K3 3 µM, K4 5 µM, K7 5 µM; 72 h
Procedure: In the previous section, the cytotoxic activity of selenoesters was determined against several 3D models of sensitive and resistant cell lines. Subsequently, the selenoesters were tested for their potential to sensitize the drug-resistant HOC/ADR and MCF-7/PAX spheroids. Mature 72 h old spheroids were incubated with the non-toxic concentration of selenoesters with Adriamycin or paclitaxel (concentration range 0.6–80 µM) for HOC/ADR or MCF-7/PAX, respectively (Table 8). After another 72 h incubation, the sensitization rate (fold change) was evaluated. […] The highest sensitization rate of ovarian spheroids (HOC/ADR) was induced by 5 µM K4, followed by 5 µM K7, and 3 µM K3.
To determine the sensitization potential of compounds, HOC/ADR and MCF-7/PAX were seeded into the ultra-low attachment 96-well plates (Sigma-Aldrich) at a cell density 0.5 × 10^5 cells/mL. After 3 days of spheroid formation, spheroids were carefully washed once with PBS and fresh DMEM medium (99 µL) containing the appropriate concentration of compounds K3, K4, K7 was added. Using a binary serial compound dilution, the concentration range of both cytostatics was prepared in the new 96-well plates (0.06–8 mM). After 1 µL transfer of cytostatics into the corresponding cell line, the final concentration range were 0.6–80 µM. The required volume of DMSO (1% V/V) was added to the positive control. After an incubation of 72 h, 100 µL of CellTiter-Glo 3D Reagent (Promega) was added to each well. Plates with spheroids were incubated for 25 min at room temperature. Afterwards, the luminescent signal was recorded.

SMILES | IC50 [1] [nM] | SI HEK293/HOC [1] | IC50 [2] [nM] | SI HEK293/MCF-7 [2] | IC50 [3] [nM] | IC10 [3] [nM] | SI HEK293/HOC/ADR [3] | CS (collateral sensitivity index) [3] | IC50 [4] [nM] | SI HEK293/MC7-7/PAX [4] | CS (collateral sensitivity index) [4] | IC10 of compounds [4] [nM] | IC50 (HOC spheroids) [nM] | IC50 (HOC/ADR spheroids [5]) [nM] | IC50 (MCF-7 spheroids) [nM] | IC50 (MCF-7/PAX spheroids) [nM] | HOC/ADR Fold change (3D) (HOC/ADR spheroids [6])
CC(=O)C[Se]C(=O)c1ccc(Br)cc1 [K3] | 1800 | 1.3 ± 0.0 | 2000 ± 500 | 1.2 ± 0.3 | 2600 ± 100 | 2000 | 0.9 ± 0.0 | 0.7 ± 0.1 | 2100 ± 100 | 1.1 ± 0.1 | 1.0 ± 0.3 | 1200 | 1700 ± 100 | 3900 ± 200 | 2500 ± 200 | 4000 ± 100 | (1.2 ± 0.2)×
CC(=O)C[Se]C(=O)c1ccccc1C(F)(F)F [K4] | 2200 ± 100 | 2.5 ± 0.2 | 1800 ± 100 | 2.9 ± 0.3 | 3600 ± 100 | 2900 | 1.5 ± 0.2 | 0.6 ± 0.0 | 3300 ± 300 | 1.6 ± 0.2 | 0.6 ± 0.0 | 1800 | 3100 ± 100 | 10500 ± 500 | 2100 | 4800 ± 300 | (2.3 ± 0.1)×
CC(=O)C[Se]C(=O)c1ccc(C(C)(C)C)cc1 [K7] | 1100 ± 100 | 1.7 ± 0.2 | 1900 ± 100 | 0.8 ± 0.1 | 3100 ± 300 | 1800 | 0.5 ± 0.1 | 0.4 ± 0.1 | 2400 ± 100 | 0.6 ± 0.1 | 0.8 ± 0.1 | 1300 | 2800 ± 100 | 10100 ± 500 | 2200 ± 300 | 7500 ± 200 | (1.6 ± 0.1)×
